Experimental data taken from patent US5952321A, “Substituted azetidinones as anti-inflammatory and antidegenerative agents” (Merck & Co., Inc., priority 1996, dated 1999).
Read-outs that look alike come from different tables or passages of the source.

Target: T1, Human Polymorphonuclear Leukocyte Elastase (Homo sapiens, UniProt P08246)
T1 sequence (P08246 30-267): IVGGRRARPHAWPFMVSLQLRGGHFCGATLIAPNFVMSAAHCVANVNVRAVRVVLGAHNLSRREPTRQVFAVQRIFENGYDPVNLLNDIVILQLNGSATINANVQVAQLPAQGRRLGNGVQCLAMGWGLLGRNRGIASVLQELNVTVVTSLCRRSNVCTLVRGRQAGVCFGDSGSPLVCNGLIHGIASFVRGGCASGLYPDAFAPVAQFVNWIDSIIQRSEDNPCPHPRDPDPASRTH
Assay: Inhibition of human polymorphonuclear leukocyte elastase via hydrolysis of Boc-AAPAN or Boc-AAPVN
Format: biochemical
Details: second order rate constant for inactivation of the enzyme, read-out: Kobs /[I]
Procedure: Enzyme Assays for the Inhibition of Human Polymorphonuclear Leukocyte Elastase Via Hydrolysis of N-t-Boc-alanyl-alanyl-prolylalanine-p-nitroanilide (Boc-AAPAN) or […] (Boc-AAPVN) Reagent:
0.05M TES (N-tris[hydroxymethyl]methyl-2-amino-ethanesulfonic acid) Buffer, pH 7.5.
0.2 mM Boc-AAPAN or Boc-AAPVN.
To prepare substrate, the solid was first dissolved in 10.0 ml DMSO. Buffer at pH 7.5 was then added to a final volume of 100 ml.
Crude extract of human polymorphonuclear leukocytes (PMN) containing elastase activity.
Inhibitors (azetidinones) to be tested dissolved in DMSO just before use.
To 1.0 ml of 0.2 mM Boc-AAPAN in a cuvette, 0.01-0.1 ml of DMSO with or without inhibitor was added. After mixing, a measurement was taken at 410 mμ to detect any spontaneous hydrolysis due to presence of test compound. 0.05 Milliliters of PMN extract was then added and the ΔOD/min at 410 mμ was measured and recorded. Beckman model 35 spectrophotometer was used.
Results in Tables I to III were reported as ID50, effective dosage in micrograms per milliliter (μg/ml) for 50% inhibition of the enzyme activity 2 minutes after zero time.
Results were also expressed as Ki, the micromolar concentration of the inhibitor (μM) giving 50% of the control enzyme activity; or as ^k obs/I which is the second order rate constant in per mole per second for inactivation of the enzyme.
The elastase activity in the crude PMN extract may vary from one preparation to another. A control of each new batch is run, and the volume added in the assay procedure is adjusted according to activity.

SMILES	kinact/KI (pH 7.5, Table III) [M⁻¹ s⁻¹]	kinact/KI (pH 7.5, Table I) [M⁻¹ s⁻¹]
CCC[C@@H](NC(=O)N1C(=O)C(CC)(CC)[C@@H]1Oc1ccc(CN(CCOC)CCOC)c(Cl)c1)c1ccc(C)cc1	1e+06	–
CCC[C@@H](NC(=O)N1C(=O)C(CC)(CC)[C@@H]1Oc1ccc(CN(CC)CCOCCOC)c(OC)c1)c1ccc(C)cc1	1.7e+06	–
CCC[C@@H](NC(=O)N1C(=O)C(CC)(CC)[C@@H]1Oc1ccc(CN(CC)CCOC)c(Cl)c1)c1ccc(C)cc1	550000	–
CCC[C@@H](NC(=O)N1C(=O)C(CC)(CC)[C@@H]1Oc1ccc(CN(CC)CCOC)c(C)c1)c1ccc(C)cc1	450000	–
CCC[C@@H](NC(=O)N1C(=O)C(CC)(CC)[C@@H]1Oc1ccc(CN(CC)C(C)COC)c(C)c1)c1ccc(C)cc1 (stereo partly drawn)	400000	–
CCC[C@@H](NC(=O)N1C(=O)C(CC)(CC)[C@@H]1Oc1ccc(CN(CC)C(C)COC)c(OC)c1)c1ccc(C)cc1 (stereo partly drawn)	1.3e+06	–
CCC[C@@H](NC(=O)N1C(=O)C(CC)(CC)[C@@H]1Oc1cc(C)c(CN(C)CCOC)c(C)c1)c1ccc(C)cc1	300000	–
CCC[C@@H](NC(=O)N1C(=O)C(CC)(CC)[C@@H]1Oc1ccc(CN(C)CCOC)c(Cl)c1)c1ccc(C)cc1	1e+06	–
CCC[C@@H](NC(=O)N1C(=O)C(CC)(CC)[C@@H]1Oc1ccc(CN(C)CCOC)c(C)c1)c1ccc(C)cc1	540000	–
CCC[C@@H](NC(=O)N1C(=O)C(CC)(CC)[C@@H]1Oc1ccc(CN(C)C(C)COC)c(Cl)c1)c1ccc(C)cc1 (stereo partly drawn)	650000	–
CCC[C@@H](NC(=O)N1C(=O)C(CC)(CC)[C@@H]1Oc1ccc(CN(C)C(C)COC)c(OC)c1)c1ccc(C)cc1 (stereo partly drawn)	1.65e+06	–
CCC[C@@H](NC(=O)N1C(=O)C(CC)(CC)[C@@H]1Oc1ccc(CN(CC)CCOC)cc1)c1ccc(OCC)cc1	1.12e+06	–
CCC[C@@H](NC(=O)N1C(=O)C(CC)(CC)[C@@H]1Oc1ccc(CN(C)CCOC)cc1)c1ccc(OCC)cc1	1.3e+06	–
CCC[C@@H](NC(=O)N1C(=O)C(CC)(CC)[C@@H]1Oc1ccc(CN(CC)CCOC)cc1)c1ccc(OC)cc1	1e+06	–
CCC[C@@H](NC(=O)N1C(=O)C(CC)(CC)[C@@H]1Oc1ccc(CN(C)CCOC)cc1)c1ccc(OC)cc1	900000	–
CCC[C@@H](NC(=O)N1C(=O)C(CC)(CC)[C@@H]1Oc1ccc(CN(CC)CCOC)cc1)c1ccc2c(c1)OCO2	1.9e+06	–
CCC[C@@H](NC(=O)N1C(=O)C(CC)(CC)[C@@H]1Oc1ccc(CN(CC)C(C)COC)cc1)c1ccc2c(c1)OCO2 (stereo partly drawn)	1.6e+06	–
CCC[C@@H](NC(=O)N1C(=O)C(CC)(CC)[C@@H]1Oc1ccc(CNC2CC2)cc1)c1ccc2c(c1)OCO2	1.6e+06	–
CCC[C@@H](NC(=O)N1C(=O)C(CC)(CC)[C@@H]1Oc1ccc(CN(CC)CCOC)cc1)c1ccc2occc2c1	1.1e+06	–
CCC[C@@H](NC(=O)N1C(=O)C(CC)(CC)[C@@H]1Oc1ccc(CN(CC)C(C)COC)cc1)c1ccc2occc2c1 (stereo partly drawn)	1.05e+06	–

SMILES	kinact/KI (pH 7.5, Table III) [M⁻¹ s⁻¹]	kinact/KI (pH 7.5, Table I) [M⁻¹ s⁻¹]
CCC[C@@H](NC(=O)N1C(=O)C(CC)(CC)[C@@H]1Oc1ccc(CN(C)CCOC(=O)N2CCOCC2)cc1)c1ccc(C)cc1	–	1.4e+06
CCC[C@@H](NC(=O)N1C(=O)C(CC)(CC)[C@@H]1Oc1ccc(CN(C)CC2CCCCO2)cc1)c1ccc(C)cc1 (stereo partly drawn)	–	900000
CCC[C@@H](NC(=O)N1C(=O)C(CC)(CC)[C@@H]1Oc1ccc(CN2CCC[C@@H]2CO)cc1)c1ccc(C)cc1	–	725000
CCC[C@@H](NC(=O)N1C(=O)C(CC)(CC)[C@@H]1Oc1ccc(CN2CCC[C@H]2COC)cc1)c1ccc(C)cc1	–	1.55e+06
CCC[C@@H](NC(=O)N1C(=O)C(CC)(CC)[C@@H]1Oc1ccc(CN2CCN(c3ncccn3)CC2)cc1)c1ccc(C)cc1	–	715000
CCC[C@@H](NC(=O)N1C(=O)C(CC)(CC)[C@@H]1Oc1ccc(CN2CCN(C(=O)OC)CC2)cc1)c1ccc(C)cc1	–	730000
CCC[C@@H](NC(=O)N1C(=O)C(CC)(CC)[C@@H]1Oc1ccc(CN2CCN(C(=O)C(C)C)CC2)cc1)c1ccc(C)cc1	–	1.6e+06
CCC[C@@H](NC(=O)N1C(=O)C(CC)(CC)[C@@H]1Oc1ccc(CN2CCN(C(=O)N(CC)CC)CC2)cc1)c1ccc(C)cc1	–	1.4e+06
CCC[C@@H](NC(=O)N1C(=O)C(CC)(CC)[C@@H]1Oc1ccc(C(COC)N(C)C)cc1)c1ccc2c(c1)OCO2 (mixture of isomers) [3,3-Diethyl-1-[(R)-α-(n-propyl)-(3,4-dioxomethylene)benzylaminocarbonyl]-4-(S)-[4-{1-(RS)-(N,N-dimethylamino)-2-methoxyethyl}phenoxy]azetidin-2-one]	1.9e+06	–
CCC[C@@H](NC(=O)N1C(=O)C(CC)(CC)[C@@H]1Oc1ccc(C(COC)N(C)CCC)cc1)c1ccc2c(c1)OCO2 (mixture of isomers) [3,3-Diethyl-1-[(R)-α-(n-propyl)-(3,4-dioxomethylene)benzylaminocarbonyl]-4-(S)-[4-{1-(RS)-(N-(n-propyl)-N-(methyl)amino)-2-methoxyethyl}phenoxy]azetidin-2-one]	1.8e+06	–
CCC[C@@H](NC(=O)N1C(=O)C(CC)(CC)[C@@H]1Oc1ccc(C(COC)N(C)CC)cc1)c1ccc2c(c1)OCO2 (mixture of isomers) [3,3-Diethyl-1-[(R)-α-(n-propyl)-(3,4-dioxomethylene)benzylaminocarbonyl]-4-(S)-[4-{1-(RS)-(N-ethyl-N-(methyl)amino)-2-methoxyethyl}phenoxy]azetidin-2-one]	1.65e+06	–
CCC[C@@H](NC(=O)N1C(=O)C(CC)(CC)[C@@H]1Oc1ccc(C(COC)N2CCCC2)cc1)c1ccc(C)cc1 (mixture of isomers) [R4+R5=--CH2 CH2 CH2 CH2 --; R6=CH2 OMe, 3,3-Diethyl-1-[(R)-α-(n-propyl)-4-(methyl)benzylaminocarbonyl]-4-(S)-[4-{1-(RS)-(1-pyrrolidino)-2-methoxyethyl}phenoxy]azetidin-2-one]	–	1.7e+06
CCC[C@@H](NC(=O)N1C(=O)C(CC)(CC)[C@@H]1Oc1ccc(C2CCCN2CCOC)cc1)c1ccc(C)cc1 (mixture of isomers) [R4=CH2 CH2 OMe; R5+R6=--CH2 CH2 CH2 --, 3,3-Diethyl-1-[(R)-α-(n-propyl)-4-(methyl)benzylaminocarbonyl]-4-(S)-[4-{2-(RS)-(N-(2-methoxyethyl)pyrrolidino)}phenoxy]azetidin-2-one]	–	940000
CCC[C@@H](NC(=O)N1C(=O)C(CC)(CC)[C@@H]1Oc1ccc(C(COC)N(CC)CC)cc1)c1ccc(C)cc1 (mixture of isomers) [R4=Et; R5=Et; R6=CH2 OMe, 3,3-Diethyl-1-[(R)-α-(n-propyl)-4-(methyl)benzylaminocarbonyl]-4-(S)-[4-{1-(RS)-(N,N-diethylamino)-2-methoxyethyl}phenoxy]azetidin-2-one]	–	1.1e+06
CCC[C@@H](NC(=O)N1C(=O)C(CC)(CC)[C@@H]1Oc1ccc(C(COC)N(C)CC)cc1)c1ccc(C)cc1 (mixture of isomers) [R4=Me; R5=Et; R6=CH2 OMe, 3,3-Diethyl-1-[(R)-α-(n-propyl)-4-(methyl)benzylaminocarbonyl]-4-(S)-[4-{1-(RS)-(N-ethyl-N-(methyl)amino)2-methoxyethyl}-phenoxy]azetidin-2-one]	–	1e+06
CCC[C@@H](NC(=O)N1C(=O)C(CC)(CC)[C@@H]1Oc1ccc(C(COC)N(C)C)cc1)c1ccc(C)cc1 (mixture of isomers) [R4=Me; R5=Me; R6=CH2 OMe, 3,3-Diethyl-1-[(R)-α-(n-propyl)-4-(methyl)benzylaminocarbonyl]-4-(S)-[4-{1-(RS)-(N,N-dimethylamino)-2-methoxyethyl}phenoxy]azetidin-2-one]	–	1.28e+06
CCC[C@@H](NC(=O)N1C(=O)C(CC)(CC)[C@@H]1Oc1ccc(C(COC)N(C)CCC)cc1)c1ccc(C)cc1 (mixture of isomers) [R4=Me; R5=n-Pr; R6=CH2 OMe, 3,3-Diethyl-1-[(R)-α-(n-propyl)-4-(methyl)benzylaminocarbonyl]-4-(S)-[4-{1-(RS)-(N-(n-propyl)-N-(methyl)amino)-2-methoxyethyl}phenoxy]azetidin-2-one]	–	1.5e+06
CCC[C@@H](NC(=O)N1C(=O)C(CC)(CC)[C@@H]1Oc1ccc(C(C)N2CCC[C@H]2COC)cc1)c1ccc(C)cc1 (single isomer, unassigned) [R4+R5=--CH2 CH2 CH2 CH(S--CH2 OMe)--; R6=Me (isomer A)]	–	960000
CCC[C@@H](NC(=O)N1C(=O)C(CC)(CC)[C@@H]1Oc1ccc(CN2CCN(C(=O)N(C)C)CC2)cc1)c1ccc2c(c1)OCO2 [(4S)-3,3-Diethyl-1-[(R)-α-n-propyl-3,4-methylenedioxy)benzylaminocarbonyl]-4-[(4-((4-diemthylaminocarbonyl)piperazin-1-yl)methyl)phenoxy]azetidin-2-one]	4e+06	–
